The source of these data is patent publication EP4620476A1, “ANTIVIRAL COMPOSITION CONTAINING INCLUSION COMPOUNDS WITH CYCLODEXTRINS AS ACTIVITY MODULATORS AND ANTISEPTIC ACTIVES AND USES THEREOF” (Silva, Renata Moisés Iwamizu, priority 2022, dated 2024).

Each structure is given as a SMILES string. Counter-ions that a name gives are not always drawn. A value given as a limit tells only on which side of the number the result lay.

The conditions of data set [1]: cited from earlier work.
The test system of the next data set is HSV-1. The data set can be described thus: Virucidal assay: HSV-1 incubated with product, then added to Vero cells, MTT readout. Type of data set: cell-based. The settings on record: 3 µg/mL. As for the experimental part:
(§1) The product was evaluated for its effective concentration against the virus without causing toxicity to the tested cells. The virus (HSV-1) was added to different dilutions of the product and incubated for 1 hour at 37°C. Then, the solution was diluted (1:10) and added to Vero cells (ATCC CCL-81) for incubation for 72 hours at 37°C and 5% CO2. Positive control (virus without treatment with the inclusion compounds) and negative control (cells without virus and without treatment) were used, under the same conditions, in all tests. The results were evaluated by MTT (Mosmann, 1983; Sieuwerts et al., 1995). The assays were carried out in a NB-2 laboratory (Biosafety Level 2) following Good Laboratory Practices (GLP) and in accordance with the recommendations of ANVISA (Art. 1 and Art. 3 of IN 04/13 and IN 12/16).

The nature of data set [2]: Cytotoxicity in Vero cells (MTT). Type of data set: cell-based. The conditions noted are these: monkey. As for the experimental part:
as §1

`Nc1nc2c(ncn2COCCO)c(=O)[nH]1` [Acyclovir]: in data set [1], the plasma protein binding entry is recorded as “less than 20%”.
By CC50 is commonly meant the concentration that lowers cell viability or growth by half. Regarding `N=C(NCCCCCCNC(=N)NC(=N)Nc1ccc(Cl)cc1)NC(=N)Nc1ccc(Cl)cc1` [digluconate salt of chlorhexidine], the “inactivation of HSV-1” value in the data set on HSV-1 is “unable to inactivate HSV-1”. The half-maximal cytotoxic concentration (CC50) at 72 h in data set [2] is more than 3 mg/L.
